Results published in US9376469B2, “Proteolytically resistant hydrogen bond surrogate helices” (New York University, priority 2011, dated 2016).
Square brackets hold non-standard residues; d marks the D form. Peptide text beside a SMILES is read from it. * marks the point of attachment. X1 = NC(=O)CC[C@@H]1NC(=O)CCC=CCN(CCC(=O)*)C(=O)[C@H](CCC(=O)O)NC1=O; β3hL = CC(C)C[C@H](N)CC(=O)O; β3hA = C[C@H](N)CC(=O)O

How the values were obtained:
[1] = system: serum proteases; test: Serum stability assay; type: in vitro ADME; settings: 25% human serum in RPMI, 37° C., after 24 hours, LCMS
Method: Peptides and 50% human serum (Sigma, St Louis, Mo., USA; product number S7023) in RPMI were temperature-equilibrated to 37° C. for 15 minutes prior to the experiments. […] After 0, 2, 5, 10, and 24 hours, three samples of each peptide (50 μl) were taken, and were precipitated by the addition of 100 μl of 6% aqueous trichloroacetic acid. The samples were cooled to 4° C. for 20 minutes and centrifuged (14000 rpm for 5 minutes). The supernatants were immediately frozen on dry ice and 100 μl of each were analyzed on an Agilent LCMS using 0.1% formic acid in water (eluent A) and 0.1% formic acid in acetonitrile (eluent B). The level of intact peptide was determined by comparing the LC % area of the peptide peak at different time points to the % area of the O-hour peak.
Human serum contains a myriad of proteases and provides a gauge for the stability of compounds under physiological conditions.

[2] = system: trypsin; test: Trypsin digestion assay; type: in vitro ADME; settings: 1 ng/μL trypsin, 4° C.
Method: A solution containing 500 μM of tryptophan, 1 ng/μL of trypsin, and 500 μM of peptide in PBS was incubated at 4° C. At the indicated time intervals, 100 μL of this solution was quenched with 100 μL of 2% aqueous TFA, and then injected into reversed-phase HPLC to analyze the change in the area of the peptide peak compared to the area of an internal control (tryptophan).
Trypsin was chosen as the model proteolytic enzyme because the p53 activation domain contains a lysine group near the C-terminus, providing a cleavage site for this enzyme. […] The rate of peptide digestion was measured using an LCMS assay with tryptophan as an internal control.

[3] = biological target: T1, His6-tagged Mdm2 (25-117) (Homo sapiens, UniProt Q00987); test: Fluorescence polarization-based competitive binding assay with Flu-p53; settings: for Kd: read-out: KD (binding constant for His6-Mdm2); for Binding to Mdm2, result in words: negative control peptides
T1 construct: made in house; host or cells: E. coli BL21 DE3 pLySS, pET-14B vector

[4] = system: HeLa cells; test: Cellular uptake assay, confocal microscopy of live cells; type: cell-based; settings: 15 μM fluorescein-tagged peptide, 2 hours, 37° C.
Method: HeLa cells were cultured to sub-confluence in DMEM (Invitrogen) supplemented with 10% (v/v) fetal bovine serum (FBS) at 37° C. in a humidified incubator containing 5% CO2. Cells (˜1×10^4 cells/ml) in DMEM supplemented with 10% FBS were plated onto a 24-well culture plate containing microscope cover slides. After overnight incubation, cells were washed three times with 1 ml HBSS (Invitrogen) and supplemented with 15 μM fluorescein-tagged peptides in 1 mM PBS (pH 7.4) to a total volume of 500 μl. Peptide treated cells were incubated for another 2 hours at 37° C., washed five times with 500 μl HBSS, and imaged directly on a Leica TSC SP 2 laser scanning confocal microscope. Twenty serial 1 μm Z-section images through the middle of the cells were collected and analyzed.
It is likely that cellular uptake of HBS helices will have sequence dependence; however, it is noteworthy that peptides with an overall negative charge are internalized (Patgiri et al., Nat. Chem. Biol. 7:585 (2011), which is hereby incorporated by reference in its entirety), as positive charge is often associated with enhanced cellular uptake of peptides (Henchey et al., J. Am. Chem. Soc'y 132:941 (2010); Bernal et al., J. Am. Chem. Soc'y 129:2456 (2007); Wender et al., Proc. Nat'l Acad. Sci. USA 97:13003 (2000), each of which is hereby incorporated by reference in its entirety).

| Molecule | Kd [3] [µM] | Binding to Mdm2, result in words [3] | also measured |
| --- | --- | --- | --- |
| CC(C)C[C@@H](CC(=O)N[C@@H](CC(C)C)C(=O)N[C@@H](CO)C(N)=O)NC(=O)[C@H](CCCCN)NC(=O)[C@H](Cc1c[nH]c2ccccc12)NC(=O)[C@H](CC(C)C)NC(=O)C[C@H](CC(=O)O)NC(=O)[C@H](CO)NC(=O)[C@H](Cc1ccccc1)NC(=O)CN1CC=CCCC(=O)N[C@@H](CCC(N)=O)C(=O)N[C@@H](CCC(=O)O)CC1=O [Peptide 1, XQeG*FSdLWKILS-NH2 (SEQ ID NO: 5)] |  |  | Stability in human serum, in words [1]: remained unperturbed; metabolised at 24 h, 500 μM ([2]; trypsin (isolated protease) in PBS, after 24 hours, 500 μM peptide, read-out: Peptide cleaved by trypsin): ~20% |
| CC(=O)N[C@@H](CCC(N)=O)C(=O)N[C@@H](CCC(=O)O)CC(=O)NCC(=O)N[C@@H](Cc1ccccc1)C(=O)N[C@@H](CO)C(=O)N[C@@H](CC(=O)O)CC(=O)N[C@@H](CC(C)C)C(=O)N[C@@H](Cc1c[nH]c2ccccc12)C(=O)N[C@@H](CCCCN)C(=O)N[C@H](CC(=O)N[C@@H](CC(C)C)C(=O)N[C@@H](CO)C(N)=O)CC(C)C [Peptide 3, Ac-QeGFSdLWKILS-NH2 (SEQ ID NO: 7)] |  |  | Stability toward trypsin degradation, in words ([2]; PBS): stable toward degradation |
| CC(=O)N[C@@H](CCC(N)=O)C(=O)N[C@H]1CCC[C@@H]1C(=O)NCC(=O)N[C@@H](Cc1ccccc1)C(=O)N[C@@H](CO)C(=O)N[C@H]1CCC[C@@H]1C(=O)N[C@@H](CC(C)C)C(=O)N[C@@H](Cc1c[nH]c2ccccc12)C(=O)N[C@@H](CCCCN)C(=O)N[C@H]1CCC[C@@H]1C(=O)N[C@@H](CC(C)C)C(=O)N[C@@H](CO)C(N)=O [Peptide 4, Ac-Q(ACPC)GFS(ACPC)LWK(ACPC)LS-NH2 (SEQ ID NO: 8)] | 0.43 ± 0.086 |  | Affinity for Mdm2 as compared to peptide 1 ([3]; relative to peptide 1): roughly five-fold lower affinity |
| CC(C)C[C@@H](CC(=O)N[C@@H](Cc1c[nH]c2ccccc12)C(=O)N[C@@H](CCCCN)C(=O)N[C@@H](CC(C)C)C(=O)N[C@@H](C)CC(=O)N[C@@H](CO)C(N)=O)NC(=O)[C@H](CC(=O)O)NC(=O)[C@H](CO)NC(=O)[C@H](C)NC(=O)CCN1CC=CCCC(=O)N[C@@H](CCC(N)=O)C(=O)N[C@@H](CCC(=O)O)C1=O [Peptide 4-9, XQEg*ASDIWKLaS-NH2 (SEQ ID NO: 16)] (X1-ASD[β3hL]WKL[β3hA]S-NH2) | > 1000 | does not bind with any appreciable binding affinity |  |
| CC(C)C[C@@H](CC(=O)N[C@@H](C)C(=O)N[C@@H](CO)C(N)=O)NC(=O)[C@H](CCCCN)NC(=O)[C@H](Cc1c[nH]c2ccccc12)NC(=O)[C@H](CC(C)C)NC(=O)C[C@H](CC(=O)O)NC(=O)[C@H](CO)NC(=O)[C@H](C)NC(=O)CN1CC=CCCC(=O)N[C@@H](CCC(N)=O)C(=O)N[C@@H](CCC(=O)O)CC1=O [Peptide 5, XQeG*ASdLWKIAS-NH2 (SEQ ID NO: 9)] | > 1000 | does not bind to Mdm2 with measurable affinity |  |
| XQeG*FSdLWKILSC^Flu-NH2 (SEQ ID NO: 11) [Flu-1] |  |  | Cellular uptake (intracellular fluorescence) [4]: intense intracellular fluorescence |
